# Measurements from ChEMBL document CHEMBL1201862, “PubChem BioAssay data set” (2004).
#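 Step 1: Grow cells in 96-well plates. Step 2: Expose to compound for 48 hours at 5 concentrations. Step 3: Interpolate endpoints linearly; if unreached, use highest concentration. Here, GI50 denotes the concentration required for 50% inhibition of growth.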 Activity calls are given as the source filed them. Cut-off read from the data, not from the text of the source: active = GI50 up to about 1.1 µM and inactive = higher.
# Assays:
# Experiment in all cases: NCI tumour cell line growth inhibition, 48 h
# 786-0 = test system: 786-0
# A498 = test system: A498
# A549 = test system: A549
# EKVX = test system: EKVX
# HCT-116 = test system: HCT-116
# HL-60 = test system: HL-60
# HOP-92 = test system: HOP-92
# LOX IMVI = test system: LOX IMVI
# M14 = test system: M14
# MDA-N = test system: MDA-N
# MOLT-4 = test system: MOLT-4
# OVCAR-4 = test system: OVCAR-4
# PC-3 = test system: PC-3
# RPMI-8226 = test system: RPMI-8226
# SF-268 = test system: SF-268
# SN12C = test system: SN12C
# SNB-19 = test system: SNB-19
# SR = test system: SR
# SW-620 = test system: SW-620
# TK-10 = test system: TK-10
SMILES,GI50 (786-0),GI50 (A498),GI50 (A549),GI50 (EKVX),GI50 (HCT-116),GI50 (HL-60),GI50 (HOP-92),GI50 (LOX IMVI),GI50 (M14),GI50 (MDA-N),GI50 (MOLT-4),GI50 (OVCAR-4),GI50 (PC-3),GI50 (RPMI-8226),GI50 (SF-268),GI50 (SN12C),GI50 (SNB-19),GI50 (SR),GI50 (SW-620),GI50 (TK-10)
Cc1ccc(NC(=O)c2cccc(OP(=O)(O)Nc3ccc(C)cc3)c2)cc1,> 100 µM (inactive),> 100 µM (inactive),71.8 µM (inactive),> 100 µM (inactive),> 100 µM (inactive),> 100 µM (inactive),37.2 µM (inactive),> 100 µM (inactive),33.3 µM (inactive),63.5 µM (inactive),64.6 µM (inactive),72.8 µM (inactive),> 100 µM (inactive),> 100 µM (inactive),> 100 µM (inactive),> 100 µM (inactive),> 100 µM (inactive),32.4 µM (inactive),> 100 µM (inactive),> 100 µM (inactive)
O=C(O)CN(CC(=O)O)Cc1cc2c(cc1O)Oc1cc(O)c(CN(CC(=O)O)CC(=O)O)cc1C21OC(=O)c2ccccc21 [OFTASCEINE],> 100 µM (inactive),> 100 µM (inactive),> 100 µM (inactive),> 100 µM (inactive),> 100 µM (inactive),> 100 µM (inactive),> 100 µM (inactive),> 100 µM (inactive),> 100 µM (inactive),> 100 µM (inactive),> 100 µM (inactive),> 100 µM (inactive),> 100 µM (inactive),> 100 µM (inactive),> 100 µM (inactive),> 100 µM (inactive),> 100 µM (inactive),> 100 µM (inactive),> 100 µM (inactive),> 100 µM (inactive)
N#C/C=C(/NC(=O)Nc1ccccc1)N1CCCC1,31.9 µM (inactive),> 100 µM (inactive),> 40.7 µM (inactive),> 59.7 µM (inactive),> 34.8 µM (inactive),> 100 µM (inactive),> 48 µM (inactive),> 66.7 µM (inactive),> 49 µM (inactive),> 100 µM (inactive),> 100 µM (inactive),34.6 µM (inactive),> 35.3 µM (inactive),> 82 µM (inactive),> 32.3 µM (inactive),> 86.3 µM (inactive),> 25.2 µM (inactive),> 100 µM (inactive),> 44.2 µM (inactive),> 36.2 µM (inactive)
Nc1ccc2c(c1)Nc1c3ccccc3nc3cccc-2c13,1.21 µM (inactive),1.79 µM (inactive),1.36 µM (inactive),1.69 µM (inactive),1.48 µM (inactive),3.66 µM (inactive),1.6 µM (inactive),1.3 µM (inactive),2.12 µM (inactive),1.42 µM (inactive),0.391 µM (active),1.72 µM (inactive),1.54 µM (inactive),1.84 µM (inactive),1.73 µM (inactive),1.29 µM (inactive),1.64 µM (inactive),0.281 µM (active),0.585 µM (active),2.13 µM (inactive)
O=C(CSc1nc2ccccc2c(=O)n1-c1ccccc1)N/N=C1\C(=O)Nc2ccc(Br)cc21,1.95 µM (inactive),6.21 µM (inactive),2.3 µM (inactive),2.74 µM (inactive),2.26 µM (inactive),3.21 µM (inactive),2.7 µM (inactive),3.33 µM (inactive),2.4 µM (inactive),3.01 µM (inactive),3.33 µM (inactive),2.58 µM (inactive),1.84 µM (inactive),2.72 µM (inactive),5.48 µM (inactive),1.71 µM (inactive),3.03 µM (inactive),15.6 µM (inactive),3.37 µM (inactive),2.39 µM (inactive)
COC1(OC)C=CC(=O)C=C1,1.9 µM (inactive),32.6 µM (inactive),5.85 µM (inactive),6.78 µM (inactive),1.3 µM (inactive),3.15 µM (inactive),4.43 µM (inactive),0.667 µM (active),3.3 µM (inactive),7.41 µM (inactive),2.33 µM (inactive),3.05 µM (inactive),3.27 µM (inactive),2.74 µM (inactive),4.09 µM (inactive),7.48 µM (inactive),15.7 µM (inactive),0.843 µM (active),1.45 µM (inactive),2.69 µM (inactive)
O=C(CN1CCN(C(=O)OCc2ccccc2)CCN(CC(=O)N2CCCCC2)CCN(C(=O)OCc2ccccc2)CC1)N1CCCCC1,13.8 µM (inactive),16.7 µM (inactive),20.8 µM (inactive),24.9 µM (inactive),4.88 µM (inactive),10.6 µM (inactive),12.9 µM (inactive),14.5 µM (inactive),10.1 µM (inactive),14.8 µM (inactive),7.41 µM (inactive),4.8 µM (inactive),12.6 µM (inactive),13.4 µM (inactive),15.8 µM (inactive),11.6 µM (inactive),19.7 µM (inactive),3.3 µM (inactive),19.6 µM (inactive),11.5 µM (inactive)
